Results as given in paper PMC8463504 (Journal of inorganic biochemistry, 2021).
Read-outs that look alike come from different tables or passages of the source.

Columns and labels:
HbII [1] = molecular target: T1, HbII (Phacoides pectinatus, UniProt P41261); conditions: read-out: Equilibrium dissociation constant (Kd), pH 7.5; cited from earlier work
T1 sequence (P41261 1-151): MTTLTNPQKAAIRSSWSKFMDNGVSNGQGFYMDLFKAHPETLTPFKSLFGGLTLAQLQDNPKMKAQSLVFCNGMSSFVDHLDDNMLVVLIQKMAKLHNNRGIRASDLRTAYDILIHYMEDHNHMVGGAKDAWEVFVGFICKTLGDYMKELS

HHMb = conditions: read-out: Equilibrium dissociation constant (Kd), pH 7.5; cited from earlier work
HbI [2] = molecular target: T2, HbI (Phacoides pectinatus, UniProt P41260); conditions: read-out: Equilibrium dissociation constant (Kd), pH 7.5; cited from earlier work
T2 sequence (P41260 whole entry): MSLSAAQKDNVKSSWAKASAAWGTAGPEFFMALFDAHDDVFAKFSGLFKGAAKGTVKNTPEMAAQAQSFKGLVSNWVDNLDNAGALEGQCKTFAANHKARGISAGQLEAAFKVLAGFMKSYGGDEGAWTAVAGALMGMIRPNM

HbIII [3] = molecular target: T3, HbIII (Phacoides pectinatus, UniProt P41262); conditions: read-out: Equilibrium dissociation constant (Kd), pH 7.5; cited from earlier work
T3 sequence (P41262 1-153): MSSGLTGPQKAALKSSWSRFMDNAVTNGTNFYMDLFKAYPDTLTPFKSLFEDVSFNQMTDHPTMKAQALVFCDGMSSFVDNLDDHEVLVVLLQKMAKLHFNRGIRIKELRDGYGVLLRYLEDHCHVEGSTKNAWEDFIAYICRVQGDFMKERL

His64 = test: other; conditions: ferric heme-bound fluoride complex; cited from earlier work
adult hemoglobin (A-Hb) = adult hemoglobin (A-Hb) (Homo sapiens, UniProt P68871+P69905); test: biochemical; conditions: Measured fluoride binding dissociation constant (Kd)
adult hemoglobin (A-Hb), sequence (P69905 2-142 limits assumed): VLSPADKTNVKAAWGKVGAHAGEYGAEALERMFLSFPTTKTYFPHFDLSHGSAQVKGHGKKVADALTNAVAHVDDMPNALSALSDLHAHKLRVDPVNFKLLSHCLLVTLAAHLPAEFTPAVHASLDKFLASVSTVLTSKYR
adult hemoglobin (A-Hb), sequence (P68871 2-147 limits assumed): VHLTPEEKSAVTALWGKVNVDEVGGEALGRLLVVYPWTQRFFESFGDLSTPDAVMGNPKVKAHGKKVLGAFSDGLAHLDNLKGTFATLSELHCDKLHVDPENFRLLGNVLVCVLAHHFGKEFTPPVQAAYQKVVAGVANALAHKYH

HbII [4] = molecular target: T1, HbII; test: biochemical
HbI [5] = molecular target: T2, HbI; test: biochemical; conditions: Measured fluoride binding dissociation constant (Kd), pH 5.0
HbI [6] = molecular target: T2, HbI; conditions: pH 4 to 7 range
[7] = molecular target: horse heart myoglobin (Mb) (Equus caballus, UniProt P68082); test: biochemical
horse heart myoglobin (Mb), sequence (P68082 whole entry): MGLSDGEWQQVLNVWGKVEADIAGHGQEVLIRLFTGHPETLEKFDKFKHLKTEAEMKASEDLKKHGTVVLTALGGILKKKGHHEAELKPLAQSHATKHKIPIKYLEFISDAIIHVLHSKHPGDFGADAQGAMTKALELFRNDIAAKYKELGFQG

HbIII [8] = molecular target: T3, HbIII; test: biochemical
[9] = type: physicochemical; conditions: for % folded protein: below pH 4.4; for pKa of acid denaturation: sigmoidal-Boltzmann fit of % folded protein vs pH
HbI [10] = molecular target: T2, HbI; conditions: cited from earlier work
HbII [11] = molecular target: T1, HbII; conditions: read-out: Equilibrium dissociation constant (Kd), pH 7.5; cited from earlier work; remark: listed apart in the source
HbIII [12] = molecular target: T3, HbIII; conditions: read-out: Equilibrium dissociation constant (Kd), pH 7.5; cited from earlier work; remark: listed apart in the source
[13] = cited from earlier work
[14] = Equilibrium dissociation constant (Kd), pH 7.5
[15] = Measured fluoride binding dissociation constant (Kd), pH 5.0
[16] = Measured fluoride binding dissociation constant (Kd), pH 7.0

O=O [O2, oxygen]
Kd (HbII [1]): 0.28 µM
Kd (HHMb): 1.3 µM
Kd (HbI [2]): ~0.4 µM
Kd (HbIII [3]): 0.26 µM

Myoglobin (quoted literature values; species not stated in this article)
pKa (His64): 5.3–5.7

F [fluoride, sodium fluoride]
Kd (adult hemoglobin (A-Hb); pH 5.0): 9300 ± 5800 µM
Kd (adult hemoglobin (A-Hb); pH 7.0): 33000 ± 4000 µM
Kd (HbII [4]; [14]): 3700 µM
Kd (HbII [4]; [15]): 330 ± 67 µM
Kd (HbII [4]; [16]): 1000 ± 156 µM
Kd (HbI [5]): 100000 ± 61000 µM
Fluoride affinity in HbI, lower than the other studied heme proteins (HbI [6]): about two orders of magnitude
Kd ([7]; Equilibrium dissociation constant (Kd), HHMb, pH 7.5): 41000 µM
Kd ([7]; Measured fluoride binding dissociation constant (Kd), Mb, pH 5.0): 3000 ± 820 µM
Kd ([7]; Measured fluoride binding dissociation constant (Kd), Mb, pH 7.0): 25000 ± 2800 µM
Kd (HbIII [8]; Apparent Kd from non-linear fit, above pH 12): 4000 µM
Kd (HbIII [8]; [14]): 2900 µM
Kd (HbIII [8]; [15]): 500 ± 332 µM
Kd (HbIII [8]; [16]): 3100 ± 370 µM

A-Hb: Adult hemoglobin purchased from Sigma-Aldrich
% folded protein [9]: less than 50%
pKa of acid denaturation [9]: 4.4

S [H2S, Hydrogen sulfide]
Affinity of HbI for H2S relative to HbII and HbIII (HbI [10]; HbI greater than HbII and HbIII): 4,000 times
Kd (HbI [10]; read-out: Equilibrium dissociation constant (Kd), HbI, pH 7.5): 0.0034 µM
Kd (HbII [11]): 14.5 µM
Kd (HbIII [12]): > 16 µM
pKa (H2S/HS^− equilibrium) [13]: 7.0

B1: Mb: horse heart (methods: horse skeletal muscle) myoglobin purchased from Sigma-Aldrich (protein, UniProt P68082 2-154, looked up)
Myoglobin: GLSDGEWQQVLNVWGKVEADIAGHGQEVLIRLFTGHPETLEKFDKFKHLKTEAEMKASEDLKKHGTVVLTALGGILKKKGHHEAELKPLAQSHATKHKIPIKYLEFISDAIIHVLHSKHPGDFGADAQGAMTKALELFRNDIAAKYKELGFQG
% folded protein [9]: less than 50%
pKa of acid denaturation [9]: 4.4
